{"source": "patent US3974153A", "about": "“7-Hydrocarbonoxy imino-acetamido-3-carbamoyloxy methylceph-3-em-4 carboxylic acids” (Glaxo Laboratories Limited, priority 1971, dated 1976)", "key": {"[1]": {"assay": "exposure of crystalline forms to water vapour", "format": "physicochemical", "settings": "for water content after exposure to moisture (Karl-Fischer): 75% relative humidity, 3 days, product is Form IV", "method": "The resulting material contains about 4% water (i.e. about 1 mole) and is believed to be a hydrate. This change is reversible, so that Form IV salt may be converted to Form I salt by, for example, drying in vacuo over a desiccating agent such as phosphorus pentoxide.\nIf crystalline Form III material is treated in this way, the crystal habit of the product appears to be retained throughout the sequence of transformations. Form III salt may also be converted to Form I salt by heating a suspension of Form III material in nearly boiling methanol; this transformation […] in loss of crystallinity where crystalline Form III material is used.\nSample of Form I and Form III sodium 3-carbamoyloxymethyl-7-[2-(fur-2-yl)-2-methoxyiminoacetamido]ceph-3-em-4-carboxylate (syn isomer), prepared according to Method (iii) of Example 7 and Example 9 respectively, were exposed to moisture (75% relative humidity) for 3 days to give the title compound. The IR and NMR spectra of the products conformed to those of an authentic sample. Karl-Fischer water analysis gave, respectively, 4.0 and 3.85% (1 mole H2 O is equivalent to 3.9%)."}, "[2]": {"assay": "distribution in the body on administration by injection", "format": "in vivo"}, "solubility of base salts": {"assay": "solubility of base salts", "format": "physicochemical", "settings": "e.g. alkali metal salts"}, "Clostridia species": {"test_system": "Clostridia species", "assay": "antibacterial activity", "format": "cell-based", "settings": "in vitro and in vivo tests"}, "Proteus species": {"test_system": "Proteus species", "assay": "antibacterial activity", "format": "cell-based", "settings": "in vitro and in vivo tests"}, "Enterobacter species": {"test_system": "Enterobacter species", "assay": "antibacterial activity", "format": "cell-based", "settings": "in vitro and in vivo tests"}, "[3]": {"assay": "stability in the body and urinary recovery, animals", "format": "in vivo"}, "Klebsiella species": {"test_system": "Klebsiella species", "assay": "antibacterial activity", "format": "cell-based", "settings": "in vitro and in vivo tests"}, "[4]": {"assay": "serum levels following parenteral administration, humans", "format": "in vivo", "settings": "human subjects"}, "Escherichia coli": {"test_system": "Escherichia coli", "assay": "antibacterial activity", "format": "cell-based", "settings": "in vitro and in vivo tests"}, "serum binding": {"assay": "serum binding", "format": "in vitro ADME"}, "[5]": {"assay": "serum levels following parenteral administration, animals", "format": "in vivo", "settings": "animal subjects"}, "Streptococcus vilidans": {"test_system": "Streptococcus vilidans", "assay": "antibacterial activity", "format": "cell-based", "settings": "in vitro and in vivo tests"}, "[6]": {"test_system": "gram-positive and gram-negative microorganisms", "assay": "antibacterial activity against gram-positive and gram-negative microorganisms", "format": "cell-based"}, "Haemophilus influenzae": {"test_system": "Haemophilus influenzae", "assay": "antibacterial activity", "format": "cell-based"}, "Diplococcus pneumoniae": {"test_system": "Diplococcus pneumoniae", "assay": "antibacterial activity", "format": "cell-based", "settings": "in vitro and in vivo tests"}, "Staphylococcus aureus": {"test_system": "Staphylococcus aureus", "assay": "antibacterial activity", "format": "cell-based", "settings": "in vitro and in vivo tests"}, "[7]": {"assay": "stability in the body and urinary recovery, humans", "format": "in vivo, human"}, "Staphylococci": {"test_system": "Staphylococci", "assay": "antibacterial activity", "format": "cell-based", "settings": "in vitro and in vivo tests"}, "Neisseria meningitidis": {"test_system": "Neisseria meningitidis", "assay": "in vitro antibacterial activity", "format": "cell-based"}, "Streptococcus pyogenes": {"test_system": "Streptococcus pyogenes", "assay": "antibacterial activity", "format": "cell-based", "settings": "in vitro and in vivo tests"}, "Neisseria gonorrhoeae": {"test_system": "Neisseria gonorrhoeae", "assay": "in vitro antibacterial activity", "format": "cell-based"}, "mammalian esterases": {"test_system": "mammalian esterases", "assay": "resistance to esterases", "format": "in vitro ADME"}, "Neisseria species": {"test_system": "Neisseria species", "assay": "antibacterial activity", "format": "cell-based", "settings": "in vitro and in vivo tests"}, "β-lactamases": {"test_system": "β-lactamases", "assay": "stability to β-lactamases produced by gram-negative organisms", "format": "cell-based", "settings": "evidenced by in vitro activity against β-lactamase-producing strains of Escherichia, Enterobacter and Klebsiella species"}}, "note": "Where a name gives a salt, the structure may show the parent alone."}
{"molecule": "CO/N=C(\\C(=O)N[C@@H]1C(=O)N2C(C(=O)O)=C(COC(N)=O)CS[C@H]12)c1ccco1", "note": "[Form III, Form III Sodium (6R,7R)-3-Carbamoyloxymethyl-7-[2-(fur-2-yl)-2-methoxyiminoacetamido]ceph-3-em-4-carboxylate (syn isomer)]", "values": [{"measurement": "water content after exposure to moisture (Karl-Fischer)", "setting": "[1]", "value": 3.85, "unit": "%"}, {"measurement": "change of form on exposure to water vapour", "setting": "[1]; e.g. 75% relative humidity", "value": "loses all the dioxan present and forms Form IV material"}, {"measurement": "water absorption on exposure to water vapour (hygroscopicity)", "setting": "[1]; e.g. 75% relative humidity", "value": "hygroscopic"}]}
{"molecule": "CO/N=C(\\C(=O)N[C@@H]1C(=O)N2C(C(=O)O)=C(COC(N)=O)CS[C@H]12)c1ccco1", "note": "[Form II, Form II Sodium (6R,7R)-3-Carbamoyloxymethyl-7-[2-(fur-2-yl)-2-methoxyiminoacetamido]ceph-3-em-4-carboxylate (syn isomer)]", "values": [{"measurement": "water absorption on exposure to water vapour (hygroscopicity)", "setting": "[1]; e.g. 75% relative humidity", "value": "does not absorb further water"}]}
{"molecule": "CO/N=C(\\C(=O)N[C@@H]1C(=O)N2C(C(=O)O)=C(COC(N)=O)CS[C@H]12)c1ccco1", "note": "[sodium salt, sodium (6R,7R)-3-carbamoyloxymethyl-7-[2-(fur-2-yl)-2-methoxyiminoacetamido]ceph-3-em-4-carboxylate (syn isomer)]", "values": [{"measurement": "distribution in the body", "setting": "[2]", "value": "rapid distribution"}, {"measurement": "solubility", "setting": "solubility of base salts", "value": "highly soluble"}]}
{"molecule": "CO/N=C(\\C(=O)N[C@@H]1C(=O)N2C(C(=O)O)=C(COC(N)=O)CS[C@H]12)c1ccco1", "note": "[Form I, Form I Sodium (6R,7R)-3-Carbamoyloxymethyl-7-[2-(fur-2-yl)-2-methoxyiminoacetamido]ceph-3-em-4-carboylate (syn isomer)]", "values": [{"measurement": "water content after exposure to moisture (Karl-Fischer)", "setting": "[1]", "value": 4.0, "unit": "%"}, {"measurement": "change of form on exposure to water vapour", "setting": "[1]; e.g. 75% relative humidity", "value": "undergo a change of crystalline form leading generally to Form IV salt"}, {"measurement": "water absorption on exposure to water vapour (hygroscopicity)", "setting": "[1]; e.g. 75% relative humidity", "value": "absorb further water"}, {"measurement": "water content of material resulting from exposure to water vapour", "setting": "[1]; e.g. 75% relative humidity, material generally Form IV", "value": "about 4%"}]}
{"molecule": "CO/N=C(\\C(=O)N[C@@H]1C(=O)N2C(C(=O)O)=C(COC(N)=O)CS[C@H]12)c1ccco1", "note": "[compound (II), (6R,7R)-3-carbamoyloxymethyl-7-[2-(fur-2-yl)-2-methoxyiminoacetamido]ceph-3-em-4-carboxylic acid (syn isomer)]", "values": [{"measurement": "activity against Clostridia species", "setting": "Clostridia species", "value": "active"}, {"measurement": "activity against Proteus species", "setting": "Proteus species", "value": "active"}, {"measurement": "activity against Enterobacter species", "setting": "Enterobacter species", "value": "active"}, {"measurement": "recovery of unchanged compound in the urine", "setting": "[3]", "value": "high levels"}, {"measurement": "stability in the body", "setting": "[3]", "value": "stable"}, {"measurement": "activity against Klebsiella species", "setting": "Klebsiella species", "value": "active"}, {"measurement": "serum levels", "setting": "[4]", "value": "high serum levels"}, {"measurement": "activity against Escherichia coli", "setting": "Escherichia coli", "value": "active"}, {"measurement": "serum binding", "setting": "serum binding", "value": "low serum binding"}, {"measurement": "serum levels", "setting": "[5]", "value": "high serum levels"}, {"measurement": "activity against Streptococcus vilidans", "setting": "Streptococcus vilidans", "value": "active"}, {"measurement": "activity against gram-positive and gram-negative microorganisms", "setting": "[6]; in vitro and in vivo tests", "value": "active"}, {"measurement": "in vitro activity at high inoculum levels", "setting": "[6]; inoculum levels as high as 10^7 organisms/ml", "value": "good in vitro activity"}, {"measurement": "in vitro activity against strains of Haemophilus influenzae", "setting": "Haemophilus influenzae; in vitro", "value": "particularly high in vitro activity"}, {"measurement": "activity against Haemophilus influenzae", "setting": "Haemophilus influenzae; in vitro and in vivo tests", "value": "active"}, {"measurement": "activity against Diplococcus pneumoniae", "setting": "Diplococcus pneumoniae", "value": "active"}, {"measurement": "activity against Staphylococcus aureus", "setting": "Staphylococcus aureus", "value": "active"}, {"measurement": "recovery of unchanged compound in the urine", "setting": "[7]", "value": "high levels"}, {"measurement": "stability in the body", "setting": "[7]", "value": "stable"}, {"measurement": "activity against Staphylococci", "setting": "Staphylococci", "value": "active"}, {"measurement": "in vitro activity against strains of Neisseria meningitidis", "setting": "Neisseria meningitidis", "value": "particularly high in vitro activity"}, {"measurement": "activity against Streptococcus pyogenes", "setting": "Streptococcus pyogenes", "value": "active"}, {"measurement": "in vitro activity against strains of Neisseria gonorrhoeae", "setting": "Neisseria gonorrhoeae", "value": "particularly high in vitro activity"}, {"measurement": "resistance to the action of mammalian esterases", "setting": "mammalian esterases", "value": "resistant"}, {"measurement": "activity against Neisseria species", "setting": "Neisseria species", "value": "active"}, {"measurement": "stability to β-lactamases produced by a range of gram-negative organisms", "setting": "β-lactamases", "value": "very high stability"}]}
